One data set has as its system Vero cells. The data set can be described thus: Cytotoxicity test by MTT method. It is filed as cell-based, African green monkey. The conditions noted are these: for SI (selectivity index): between B. microti and Vero cells. As for the experimental part:
(§1) Mycoplasma-free Vero cell line (ATCC-CCL-81, immortalized cells) was preserved in liquid nitrogen with the additive of DMSO in the State Key Laboratory of Agricultural Microbiology, Huazhong Agricultural University, China. […] After adding 10 µl MTT (5 mg/ml in medium) into each test well, the plate was further incubated for another 2 h, followed by removing the culture from the incubator and discarding the medium. […] The plate was gently mixed on a gyratory shaker for 10 min and the absorbances were measured at a wavelength of 570 nm using a microplate reader (BioTek, Vermont, USA). The background absorbances of the multi-well plate at 690 nm were subtracted from the 570 nm measurement. […] The CC50 values were calculated using GraphPad Prism 5 (San Diego, CA, USA), and all the cytotoxicity tests were performed three times.
A general note: Tetrazolium dyes change colour on reduction, which living cells bring about.

Data set [1] relates to glyceraldehyde-3-phosphate dehydrogenase. More on the design: method as in Deck et al., 1998; Rellinger et al., 2017. The conditions noted are these: even at high concentrations; ref Deck et al., 1998; Rellinger et al., 2017; cited from earlier work.
For another data set, the system named is human LDH-B. More on the design: method as in Deck et al., 1998; Rellinger et al., 2017. The conditions noted are these: even at high concentrations; ref Deck et al., 1998; Rellinger et al., 2017; cited from earlier work.
Data set [2] has as its system B. microti ATCC PRA-99 strain. The data set can be described thus: Growth inhibition of B. microti in vitro. The class given is cell-based, Babesia microti. Conditions: for IC50: Babesia microti. As for the experimental part:
(§2) Three BALB/c mice were intraperitoneally injected with 1 x 10^7 parasites (100 μl fresh blood), and their blood was collected from the tail when parasitemia reached ~60% at day 7 post-infection. The growth inhibition assay of B. microti in vitro was performed by incubating freshly isolated infected mouse red blood cells (RBCs) with varying concentrations of the drugs. Briefly, […] infected mouse RBCs was diluted with 5 μl non-infected mouse RBCs and 10 μl non-infected human RBCs to achieve ~3% parasitemia in a total of 40 μl and suspended in 110 μl of a growth medium (20% bovine serum and 80% medium HL20) containing the indicated concentrations of drugs (50, 100, and 250 μM). The cultures were maintained at 37°C for 72 h in a gas mixture of 2% O2, 5% CO2, and 93% N2. Two naphthalene-based compounds DBHCA and DHNA were prepared as 100 mM stock solutions in DMSO and further diluted with growth medium. Each concentration of the compounds was tested in triplicate, while three wells received a drug-free culture medium as a control. 10 μM diminazene aceturate (DA) was selected as a positive control. Parasitemia was determined at 72 h post-treatment by enumerating a total of at least 1,000 RBCs in a Giemsa-stained thin smear. Differences in the percent parasitemia were statistically analyzed using one-way ANOVA analysis, and the IC50 values were calculated manually for obtaining more reliable data (Käber method). The hemolysis of DBHCA and DHNA against B. microti-free erythrocytes was monitored by cell counting chamber at 72 h post-treatment. All the experiments were separately repeated three times.

Data set [3] has as its target human lactate dehydrogenase (HmLDH). Further details: method as in Conners et al., 2005. The conditions noted are these: ref Conners et al., 2005; cited from earlier work.
The subject of data set [4] is Plasmodium falciparum lactate dehydrogenase (PfLDH). The conditions noted are these: 2005, cited from earlier work; for IC50: ref Conners et al.
Data set [5] relates to B. microti-free erythrocytes. The data set can be described thus: Hemolysis of B. microti-free erythrocytes. The class given is cell-based. The conditions noted are these: drug levels up to 250 µM, 72 h post-treatment. How it is done:
as §2, with “Each concentration of the compounds was tested in triplicate, while three wells received a drug-free culture medium as a control. 10 μM diminazene aceturate (DA) was selected as a positive control.” left out, “All the experiments were separately repeated three times.” left out

Data set [6] deals with recombinant BmLDH (rBmLDH) (Babesia microti, UniProt I7J7V6). The data set can be described thus: biochemical. Conditions: for selectivity over human LDH: rBmLDH vs human LDH. It is filed as biochemical. As for the experimental part:
The enzyme activity of rBmLDH was analyzed using Lactate Dehydrogenase Activity Assay Kit (Sigma-Aldrich, Shanghai, China) according to the manufacturer’s instruction. Briefly, the enzymatic activity of BmLDH was detected by catalyzing the conversion of lactate to pyruvate, with concomitant reduction of NAD^+ to NADH. The coupled reaction was followed by measuring absorbance at 450 nm and at 37°C. Three naphthalene-based compounds [2,6-naphthalenedicarboxylic acid (NDCA), 1,6-dibromo-2-hydroxynapthalene 3-carboxylic acid (DBHCA), and 3,5-dihydroxy 2-napthoic acid (DHNA)] were purchased from Sigma-Aldrich (Shanghai, China) with 99% purity for NDCA and 97% purity for DBHCA and DHNA. In the inhibitory analysis, three naphthalene-based compounds were prepared as 100 mM stock solution in 100% dimethylsulfoxide (DMSO) ( Table 2 ).
The half-maximal inhibitory concentration (IC50) values were determined in the presence of various concentrations of the three naphthalene-based compounds. […] The absorbance Tinitia and Tfinal (5 min) was measured at 450 nm. XY graphs were drawn by linear regression and error bars represent means ± SD of three independent experiments.

Data set [7] in a line: Cytotoxicity test by MTT method. The class given is cell-based, African green monkey. The conditions noted are these: African green monkey, Vero cells (ATCC-CCL-81), MTT, 72 h. As for the experimental part:
as §1

The target of the next data set is rBmLDH (Babesia microti, UniProt I7J7V6). The data set can be described thus: Surface plasmon resonance binding kinetics (Biacore T200). Conditions: for koff: read-out: k d. How it is done:
The binding properties of the rBmLDH against DBHCA and DHNA were measured separately by SPR experiment with a Biacore T200 system (GE Healthcare, Uppsala, Sweden). Briefly, a sensor chip CM5 was put into a Biacore T200 system and washed with the running buffer (PBST+0.5% DMSO, pH7.5). The CM5 chip was activated by injecting the mixture of 0.1 M N-hydroxysuccinimide (NHS) and 0.4 M 1-ethyl-3-(3-dimethylaminopropyl) carbodiimide hydrochloride (EDC) (1:1, v/v) at a flow rate of 10 μl·min^−1 for 20 min. Then, the rBmLDH diluted to 10 μg·ml^−1 with 10 mM sodium acetate buffer (pH 4.0, 4.5, 5.0, and 5.5) was covalently immobilized on the CM5 chip at a flow rate of 10 μl·min^−1 until the immobilization level of BmLDH reached 2,100 resonance units (RU). Ethanolamine solution was injected to block the remaining unreacted esters. Flow cell 1 was activated and blocked as the reference surface, while flow cell 2 served as the experimental surface. The 100 mM stocks of the two small molecule compounds were further diluted with PBST into 500, 250, 125, 62.5, 31.25, and 15.625 μM. The surface of CM5 sensor chip was fully regenerated using 10 mM glycine pH2.5 at a flow rate of 30 μl min^−1 for 30 s. The SPR kinetic experiments were performed three times and the values were presented as the mean ± SD of three independent experiments.
For binding kinetic assays, standard solutions of two naphthalene-based compounds (DBHCA and DHNA) at different concentrations were tested and the data were fitted with a 1:1 binding kinetic model.

Another data set addresses LDH-A4. Conditions: mammalian LDHs, competitive with NADH binding; read-out: K i for LDH-A4; cited from earlier work.
The subject of a further data set is B. microti. Further details: method as in Yu et al., 2019. The conditions noted are these: ref Yu et al., 2019; read-out: IC50 against B. microti in vitro; cited from earlier work.
Another data set concerns Plasmodium falciparum. Further details: method as in Vivas et al., 2005. The conditions noted are these: ref Vivas et al., 2005; read-out: IC50 against growth of P. falciparum in vitro; cited from earlier work.
The target in another data set is BmLDH. More on the design: method as in Yu et al., 2019. The conditions noted are these: ref Yu et al., 2019; read-out: K i against BmLDH; cited from earlier work.
The next data set deals with LDH-C4. Conditions: mammalian LDHs, competitive with NADH binding; read-out: K i for LDH-C4; cited from earlier work.
For the next data set, the target named is BbLDH. The conditions noted are these: read-out: K i against BbLDH; ref Bork et al., 2004; cited from earlier work.
The target in a further data set is LDH-B4. The conditions noted are these: mammalian LDHs, competitive with NADH binding; read-out: K i for LDH-B4; cited from earlier work.
The next data set concerns Babesia bovis. Further details: method as in Bork et al., 2004. The conditions noted are these: ref Bork et al., 2004; read-out: IC50 in vitro against B. bovis; cited from earlier work.
The mark [8] stands for this setting: SPR, 1:1 binding model, rBmLDH immobilized on CM5.
Setting [9] is: 72 h post-treatment, Giemsa smear parasitemia, read-out: IC50 against growth of B. microti in vitro.
Setting [10] is: asexual blood stage, 72 h, read-out: PRA-99 IC50.
Setting [11] is: rBmLDH 100 ng, lactate to pyruvate, absorbance 450 nm, 37°C, read-out: BmLDH IC50.

The IC50 is the concentration needed to halve the response being measured. Broadly, the CC50 is the concentration that lowers cell viability or growth by half.

Several values for one entry are separate records, joined by “and”; a condition that tells them apart may be missing. Equal entries are not always repeated. Where two headings read alike, the source gives them in different places. Where only a bound is given, the exact number is not on record here.

Chain of rBmLDH (I7J7V6 entry or part of it): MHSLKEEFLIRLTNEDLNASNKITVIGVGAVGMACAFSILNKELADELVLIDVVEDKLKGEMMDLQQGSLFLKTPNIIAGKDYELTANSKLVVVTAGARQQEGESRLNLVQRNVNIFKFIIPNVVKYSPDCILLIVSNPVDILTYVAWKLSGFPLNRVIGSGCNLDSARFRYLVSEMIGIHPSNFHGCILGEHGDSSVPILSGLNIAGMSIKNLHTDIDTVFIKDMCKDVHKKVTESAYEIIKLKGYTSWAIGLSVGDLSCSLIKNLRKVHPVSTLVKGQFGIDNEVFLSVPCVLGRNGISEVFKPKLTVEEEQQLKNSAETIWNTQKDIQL
Chain of recombinant BmLDH (rBmLDH) (I7J7V6 entry or part of it): as above

Turning to `COc1cccc2c1C(=O)c1c(O)c3c(c(O)c1C2=O)C[C@@](O)(C(=O)CO)C[C@@H]3O[C@H]1C[C@H](N)[C@H](O)[C@H](C)O1` [doxorubicin, reference compound], the inhibition at 3 µM in the data set with Vero cells (Chlorocebus sabaeus, Vero, positive control at 3 µM, read-out: inhibition of growth of Vero cells) is around 95%.

With `CCCc1c(O)c(O)c(C(=O)O)c2cc(Cc3ccccc3)c(C)cc12` [FX11], in data set [1], the “inhibition of glyceraldehyde-3-phosphate dehydrogenase” value is listed as “not”. Also, the “inhibition of human LDH-B” value with human LDH-B is given as “not”.

For `CC(=O)NCC(=O)O.CC(=O)NCC(=O)O.N=C(N)c1ccc(N=NNc2ccc(C(=N)N)cc2)cc1` [DA, diminazene aceturate, reference compound], the “inhibition of growth of the parasite” value in data set [2] (positive control at 10 μM, 72 h) was ~ 75.54%.

With `O=C(O)c1cc2cc(Br)ccc2c(Br)c1O` [DBHCA, 1,6-Dibromo-2-hydroxynapthalene 3-carboxylic acid], the IC50 in data set [3] is 5.9 mM; in data set [4], 0.31 mM; in data set [6] (BmLDH IC50, rBmLDH 100 ng, lactate to pyruvate, absorbance 450 nm, 37°C), 54 µM; in [6] (IC50 against BmLDH activity, rBmLDH, mean ± SD of three experiments) it was 53.9 ± 13.3 µM; in data set [2] (setting [9]), 84.8 µM; in data set [2] (setting [10]), 85 µM. The cellular hemolysis result in data set [5] was “no cellular hemolysis”. In addition, the “selectivity over human LDH” value in data set [6] was ~ 109 fold. For the same compound, the CC50 at 72 h came out at 217 µM in data set [7] (read-out: CC50 Vero) and 216 ± 18 µM in data set [7] (read-out: CC50 in Vero cells). In addition, the “SI (selectivity index)” value with Vero cells was 2.6. The compound also showed a Kd on rBmLDH of 0.0399 µM. The kon on rBmLDH (SPR, 1:1 binding model, rBmLDH immobilized on CM5, read-out: k a) stood at 37700 M⁻¹ s⁻¹. The koff at rBmLDH (setting [8]) is 0.0015 s⁻¹.

Consider `O=C(O)c1cc2cccc(O)c2cc1O` [DHNA, 3,5-Dihydroxy 2-napthoic acid], for which the IC50 in data set [4] is 1.7 mM; in [6] (setting [11]), 30 µM; in [6] (rBmLDH, mean ± SD of three experiments, read-out: IC50 against BmLDH activity), 30.2 ± 8.49 µM; in [2] (setting [9]) it was 85.7 µM; in [2] (setting [10]), 86 µM. In data set [5], the cellular hemolysis result is reported as “no cellular hemolysis”. In data set [6] (at ~60 μM, read-out: rBmLDH activity inhibited), the inhibition at 60 µM worked out at 100%. Moreover, the “selectivity over PfLDH” value in data set [6] (rBmLDH vs PfLDH) was ~ 57 fold. In data set [6], the “selectivity over human LDH” value is reported as ~ 5,000 fold. Moreover, the CC50 at 72 h in data set [7] (read-out: CC50 Vero) was found to be 1900 µM. Further, the “SI (selectivity index)” value with Vero cells is 22.1. Further, the k a on rBmLDH (setting [8]) was 20.49 1/Ms and 20.49 ± 4.18 × 10^−1 1/Ms. Moreover, the Kd at rBmLDH (SPR, 1:1 binding model, rBmLDH immobilized on CM5, read-out: K D) is 37.7 µM. The koff at rBmLDH (setting [8]) was 0.000772 s⁻¹.

In the case of `Cc1cc2c(C(C)C)c(O)c(O)c(C=O)c2c(O)c1-c1c(C)cc2c(C(C)C)c(O)c(O)c(C=O)c2c1O` [gossypol], the Ki in [4] (competitive, ref Vivas et al., read-out: K i against PfLDH) was 700 nM; on LDH-A4, 1900 nM; on BmLDH it was 670 nM; at LDH-C4, 4.2 µM; at BbLDH it was 85 nM; at LDH-B4 it was 1400 nM. Moreover, the IC50 is 7.07 µM in the data set with B. microti, 15.3 µM in the data set with Plasmodium falciparum and 50 µM in the data set on Babesia bovis. Besides, the inhibition at 0.7 µM in [6] (read-out: inhibition of the catalytic activity of BmLDH) is around 100%.

For the compound `O=C(O)c1ccc2cc(C(=O)O)ccc2c1` [NDCA, 2,6-Naphthalenedicarboxylic acid], the IC50 is 1.4 mM in data set [3], 5.1 mM in [4] and above 500 µM in data set [6] (setting [11]). Besides, the “inhibitory effect on the BmLDH activity” value in data set [6] (even at the high concentration of 500 μM) is “no inhibitory effect”.

The record behind these values is article PMC7025647, “Identifying the Naphthalene-Based Compound 3,5-Dihydroxy 2-Napthoic Acid as a Novel Lead Compound for Designing Lactate Dehydrogenase-Specific Antibabesial Drug” (Frontiers in Pharmacology, 2020).
